Assay results from the kinase profiling compilation of Christmann-Franck et al. (2016).
One block for each compound: values may come before it.

What was measured:
Assay in all cases: radiometric filter-binding kinase assay
[1] = target: BRSK1 (human) (UniProt Q8TDC3)
[2] = target: RIPK2 (human) (UniProt O43353)
[3] = target: MAP2K6 (human) (UniProt P52564)
[4] = target: RPS6KA3 KD1 KD2 (human) (UniProt P51812)
[5] = system: SGK1 (human), O00141 [S422D]
[6] = target: SRPK1 (human) (UniProt Q96SB4)
[7] = target: PRKCA (human) (UniProt P17252)
[8] = target: MAPKAPK5 (human) (UniProt Q8IW41)
[9] = target: AURKA (human) (UniProt O14965); conditions: compound 10.0 µM
[10] = target: MAPK10 (human) (UniProt P53779)
[11] = target: AURKB (human) (UniProt Q96GD4)
[12] = target: MAP2K2 (human) (UniProt P36507)
[13] = target: ERBB4 (human) (UniProt Q15303)
[14] = system: PAK2 (human), Q13177 [T402E]
[15] = target: PIM3 (human) (UniProt Q86V86)
[16] = target: BTK (human) (UniProt Q06187)
[17] = target: EPHA2 (human) (UniProt P29317)
[18] = target: MELK (human) (UniProt Q14680)
[19] = target: MAPKAPK3 (human) (UniProt Q16644)
[20] = target: FLT1 (human) (UniProt P17948)
[21] = target: FGFR1 (human) (UniProt P11362); conditions: compound 10.0 µM
[22] = target: CDK2 CCNA2 (human) (UniProt P20248+P24941)
[23] = target: DYRK2 (human) (UniProt Q92630)
[24] = target: CHEK1 (human) (UniProt O14757)
[25] = target: PIM2 (human) (UniProt Q9P1W9)
[26] = target: CSNK2A1 (human) (UniProt P68400)
[27] = target: GCK (human) (UniProt Q12851)
[28] = target: MAPK12 (human) (UniProt P53778)
[29] = target: TAOK1 (human) (UniProt Q7L7X3)
[30] = target: INSRR (human) (UniProt P14616)
[31] = target: MAPK15 (human) (UniProt Q8TD08); conditions: compound 10.0 µM
[32] = target: MST4 (human) (UniProt Q9P289)
[33] = target: EEF2K (human) (UniProt O00418)
[34] = target: PRKACA (human) (UniProt P17612)
[35] = target: MINK1 (human) (UniProt Q8N4C8); conditions: compound 10.0 µM
[36] = target: PHKG1 (human) (UniProt Q16816)

Sequence of MAPK12 (human) (P53778 whole entry, looked up): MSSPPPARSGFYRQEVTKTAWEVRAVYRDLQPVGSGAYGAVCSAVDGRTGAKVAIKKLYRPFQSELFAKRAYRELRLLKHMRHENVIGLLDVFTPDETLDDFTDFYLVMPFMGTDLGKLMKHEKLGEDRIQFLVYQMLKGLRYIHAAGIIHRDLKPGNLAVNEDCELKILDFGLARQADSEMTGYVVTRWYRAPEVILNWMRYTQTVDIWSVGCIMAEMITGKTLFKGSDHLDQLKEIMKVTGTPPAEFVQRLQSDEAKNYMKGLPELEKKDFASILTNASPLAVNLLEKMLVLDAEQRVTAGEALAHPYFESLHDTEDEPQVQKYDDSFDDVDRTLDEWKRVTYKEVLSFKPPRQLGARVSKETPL
Sequence of RIPK2 (human) (O43353 whole entry, looked up): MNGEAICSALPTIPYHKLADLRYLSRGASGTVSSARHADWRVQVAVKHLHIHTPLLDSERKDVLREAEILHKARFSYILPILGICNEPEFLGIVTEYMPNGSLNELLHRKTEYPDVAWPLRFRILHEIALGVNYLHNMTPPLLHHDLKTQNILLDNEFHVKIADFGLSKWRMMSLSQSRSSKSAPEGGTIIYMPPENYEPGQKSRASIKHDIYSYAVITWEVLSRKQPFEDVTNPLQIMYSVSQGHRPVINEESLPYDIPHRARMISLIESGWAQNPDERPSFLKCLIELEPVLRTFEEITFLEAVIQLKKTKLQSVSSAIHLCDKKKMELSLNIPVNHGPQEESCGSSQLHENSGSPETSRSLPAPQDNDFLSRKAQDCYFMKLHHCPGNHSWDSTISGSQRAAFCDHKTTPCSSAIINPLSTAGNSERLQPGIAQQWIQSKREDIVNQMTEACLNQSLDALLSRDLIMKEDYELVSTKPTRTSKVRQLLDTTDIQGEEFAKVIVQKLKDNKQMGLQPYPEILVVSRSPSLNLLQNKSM
Sequence of MAPK10 (human) (P53779 whole entry, looked up): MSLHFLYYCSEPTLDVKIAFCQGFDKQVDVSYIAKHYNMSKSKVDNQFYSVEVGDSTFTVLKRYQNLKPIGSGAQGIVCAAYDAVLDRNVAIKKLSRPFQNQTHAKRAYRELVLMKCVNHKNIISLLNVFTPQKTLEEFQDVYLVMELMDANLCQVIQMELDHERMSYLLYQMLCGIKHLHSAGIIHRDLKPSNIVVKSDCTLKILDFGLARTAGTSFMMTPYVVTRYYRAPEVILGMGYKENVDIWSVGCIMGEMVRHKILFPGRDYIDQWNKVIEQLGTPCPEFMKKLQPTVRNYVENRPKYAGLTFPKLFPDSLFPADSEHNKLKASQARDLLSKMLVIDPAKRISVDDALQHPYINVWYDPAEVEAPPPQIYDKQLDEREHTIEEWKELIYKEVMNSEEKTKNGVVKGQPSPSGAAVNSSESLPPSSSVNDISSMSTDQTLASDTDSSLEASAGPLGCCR
Sequence of MAP2K2 (human) (P36507 whole entry, looked up): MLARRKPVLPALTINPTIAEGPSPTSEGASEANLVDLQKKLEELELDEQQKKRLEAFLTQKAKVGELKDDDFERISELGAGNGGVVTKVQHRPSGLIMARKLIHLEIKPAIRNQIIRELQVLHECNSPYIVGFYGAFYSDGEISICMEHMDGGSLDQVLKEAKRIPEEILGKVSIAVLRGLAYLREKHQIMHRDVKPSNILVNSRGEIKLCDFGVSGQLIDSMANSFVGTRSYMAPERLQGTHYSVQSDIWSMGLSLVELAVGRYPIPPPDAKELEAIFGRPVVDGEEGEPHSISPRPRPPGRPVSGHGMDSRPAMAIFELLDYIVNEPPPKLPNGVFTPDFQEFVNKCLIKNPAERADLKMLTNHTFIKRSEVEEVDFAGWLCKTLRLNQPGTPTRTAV
Sequence of GCK (human) (Q12851 whole entry, looked up): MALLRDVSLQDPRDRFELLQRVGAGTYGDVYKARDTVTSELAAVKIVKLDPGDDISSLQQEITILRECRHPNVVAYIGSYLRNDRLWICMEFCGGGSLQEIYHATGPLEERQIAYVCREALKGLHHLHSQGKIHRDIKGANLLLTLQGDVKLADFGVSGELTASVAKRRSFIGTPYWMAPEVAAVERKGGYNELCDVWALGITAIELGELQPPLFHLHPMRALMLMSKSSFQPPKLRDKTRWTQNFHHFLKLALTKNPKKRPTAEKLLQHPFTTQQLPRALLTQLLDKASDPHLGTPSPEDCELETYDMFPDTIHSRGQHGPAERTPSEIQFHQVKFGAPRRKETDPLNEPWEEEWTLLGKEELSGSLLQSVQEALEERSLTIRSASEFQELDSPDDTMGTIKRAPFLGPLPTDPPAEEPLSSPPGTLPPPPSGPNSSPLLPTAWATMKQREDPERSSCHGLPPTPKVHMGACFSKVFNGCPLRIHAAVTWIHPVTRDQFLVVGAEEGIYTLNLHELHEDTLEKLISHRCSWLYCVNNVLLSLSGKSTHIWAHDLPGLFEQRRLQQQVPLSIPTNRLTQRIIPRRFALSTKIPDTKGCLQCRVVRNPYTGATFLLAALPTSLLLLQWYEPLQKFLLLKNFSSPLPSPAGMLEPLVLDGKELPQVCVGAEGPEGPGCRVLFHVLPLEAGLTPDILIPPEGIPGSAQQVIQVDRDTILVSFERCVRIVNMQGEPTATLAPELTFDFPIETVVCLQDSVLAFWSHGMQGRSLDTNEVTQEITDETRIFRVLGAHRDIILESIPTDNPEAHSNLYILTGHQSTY
Sequence of INSRR (human) (P14616 whole entry, looked up): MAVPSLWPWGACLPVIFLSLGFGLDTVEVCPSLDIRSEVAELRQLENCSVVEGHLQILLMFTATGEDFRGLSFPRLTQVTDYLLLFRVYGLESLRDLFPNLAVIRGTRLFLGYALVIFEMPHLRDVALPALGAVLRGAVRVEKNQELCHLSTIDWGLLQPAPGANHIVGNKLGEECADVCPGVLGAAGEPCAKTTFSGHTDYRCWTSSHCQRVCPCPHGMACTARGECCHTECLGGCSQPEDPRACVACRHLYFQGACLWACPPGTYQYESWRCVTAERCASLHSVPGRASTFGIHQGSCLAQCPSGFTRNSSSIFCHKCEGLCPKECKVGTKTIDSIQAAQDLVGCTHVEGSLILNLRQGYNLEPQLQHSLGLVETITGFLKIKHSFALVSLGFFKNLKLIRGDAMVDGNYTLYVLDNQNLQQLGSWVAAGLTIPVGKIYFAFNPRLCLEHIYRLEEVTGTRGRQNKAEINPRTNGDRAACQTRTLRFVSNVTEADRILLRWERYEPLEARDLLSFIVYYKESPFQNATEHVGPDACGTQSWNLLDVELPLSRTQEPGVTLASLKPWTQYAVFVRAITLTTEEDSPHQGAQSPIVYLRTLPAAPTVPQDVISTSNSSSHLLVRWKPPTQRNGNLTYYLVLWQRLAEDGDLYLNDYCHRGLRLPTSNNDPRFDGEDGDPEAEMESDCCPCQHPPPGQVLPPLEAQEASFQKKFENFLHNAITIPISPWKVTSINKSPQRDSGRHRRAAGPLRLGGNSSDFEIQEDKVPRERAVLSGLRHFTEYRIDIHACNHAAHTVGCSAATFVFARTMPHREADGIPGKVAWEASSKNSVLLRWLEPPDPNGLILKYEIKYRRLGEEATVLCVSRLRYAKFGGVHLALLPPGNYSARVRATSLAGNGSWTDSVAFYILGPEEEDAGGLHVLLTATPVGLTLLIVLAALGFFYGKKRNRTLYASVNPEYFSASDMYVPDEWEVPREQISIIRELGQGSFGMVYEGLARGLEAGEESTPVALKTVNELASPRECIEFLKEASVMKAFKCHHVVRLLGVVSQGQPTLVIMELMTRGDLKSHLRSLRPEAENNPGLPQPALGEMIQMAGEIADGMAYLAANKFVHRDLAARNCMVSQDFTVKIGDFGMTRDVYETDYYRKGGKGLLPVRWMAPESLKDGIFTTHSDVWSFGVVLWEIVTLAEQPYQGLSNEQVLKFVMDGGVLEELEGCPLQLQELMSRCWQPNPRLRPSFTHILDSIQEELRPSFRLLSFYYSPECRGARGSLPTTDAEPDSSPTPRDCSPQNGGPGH
Sequence of AURKB (human) (Q96GD4 whole entry, looked up): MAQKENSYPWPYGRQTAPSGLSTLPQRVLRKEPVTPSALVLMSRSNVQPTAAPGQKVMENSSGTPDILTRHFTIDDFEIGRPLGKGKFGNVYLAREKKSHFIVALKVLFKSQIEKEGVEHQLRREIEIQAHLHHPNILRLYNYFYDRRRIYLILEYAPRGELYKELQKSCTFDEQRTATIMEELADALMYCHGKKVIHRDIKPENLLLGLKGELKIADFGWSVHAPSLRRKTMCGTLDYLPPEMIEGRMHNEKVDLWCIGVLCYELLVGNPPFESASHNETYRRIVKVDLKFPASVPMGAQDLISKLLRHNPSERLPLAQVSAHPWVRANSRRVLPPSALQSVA
Sequence of CSNK2A1 (human) (P68400 whole entry, looked up): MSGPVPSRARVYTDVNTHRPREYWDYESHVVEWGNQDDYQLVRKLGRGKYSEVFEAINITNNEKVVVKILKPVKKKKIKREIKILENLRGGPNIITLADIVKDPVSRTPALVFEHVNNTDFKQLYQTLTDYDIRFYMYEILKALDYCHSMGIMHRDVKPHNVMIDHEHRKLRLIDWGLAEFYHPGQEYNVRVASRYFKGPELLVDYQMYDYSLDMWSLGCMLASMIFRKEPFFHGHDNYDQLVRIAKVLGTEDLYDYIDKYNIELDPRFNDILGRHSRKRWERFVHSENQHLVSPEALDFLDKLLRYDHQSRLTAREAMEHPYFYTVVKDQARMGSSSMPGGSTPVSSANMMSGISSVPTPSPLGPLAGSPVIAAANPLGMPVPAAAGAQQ

residual activity ([1]; compound 10.0 µM): 86%
residual activity ([2]; compound 10.0 µM): 134%
residual activity ([3]; compound 10.0 µM): 87%
residual activity ([4]; compound 10.0 µM): 37%
residual activity ([5]; compound 10.0 µM): 126%
residual activity ([6]; compound 10.0 µM): 76%
residual activity ([7]; compound 10.0 µM): 96%
residual activity ([8]; compound 10.0 µM): 97%
residual activity [9]: 76%
residual activity ([10]; compound 10.0 µM): 79%
residual activity ([11]; compound 10.0 µM): 102%
residual activity ([12]; compound 10.0 µM): 9%
residual activity ([13]; compound 10.0 µM): 91%
residual activity ([14]; compound 10.0 µM): 91%
residual activity ([15]; compound 10.0 µM): 92%
residual activity ([16]; compound 10.0 µM): 70%
residual activity ([17]; compound 10.0 µM): 90%
residual activity ([18]; compound 10.0 µM): 82%
residual activity ([19]; compound 10.0 µM): 41%
residual activity ([20]; compound 10.0 µM): 47%
residual activity [21]: 69%
residual activity ([22]; compound 10.0 µM): 110%
residual activity ([23]; compound 10.0 µM): 54%
residual activity ([24]; compound 10.0 µM): 164%
residual activity ([25]; compound 10.0 µM): 107%
residual activity ([26]; compound 10.0 µM): 106%
residual activity ([27]; compound 10.0 µM): 96%
residual activity ([28]; compound 10.0 µM): 112%
residual activity ([29]; compound 10.0 µM): 126%
residual activity ([30]; compound 10.0 µM): 106%
residual activity ([32]; compound 10.0 µM): 87%
residual activity ([33]; compound 10.0 µM): 97%
residual activity ([34]; compound 10.0 µM): 95%
residual activity [35]: 73%
Structure (SMILES): CCOC(=O)c1ccc(N2NC(=O)/C(=C/c3ccc([N+](=O)[O-])o3)C2=O)cc1
residual activity [31]: 86%

residual activity ([1]; compound 1.0 µM): 94%
residual activity ([1]; compound 10.0 µM): 91%
residual activity ([2]; compound 1.0 µM): 97%
residual activity ([2]; compound 10.0 µM): 88%
residual activity ([3]; compound 1.0 µM): 85%
residual activity ([3]; compound 10.0 µM): 81%
residual activity ([4]; compound 1.0 µM): 99%
residual activity ([4]; compound 10.0 µM): 92%
residual activity ([5]; compound 1.0 µM): 99%
residual activity ([5]; compound 10.0 µM): 98%
residual activity ([6]; compound 1.0 µM): 99%
residual activity ([6]; compound 10.0 µM): 89%
residual activity ([7]; compound 1.0 µM): 94%
residual activity ([7]; compound 10.0 µM): 92%
residual activity ([36]; compound 1.0 µM): 85%
residual activity ([36]; compound 10.0 µM): 83%
residual activity ([8]; compound 1.0 µM): 87%
residual activity ([8]; compound 10.0 µM): 82%
residual activity [9]: 94%
residual activity ([10]; compound 1.0 µM): 99%
residual activity ([10]; compound 10.0 µM): 92%
residual activity ([11]; compound 1.0 µM): 95%
residual activity ([11]; compound 10.0 µM): 96%
residual activity ([12]; compound 1.0 µM): 77%
residual activity ([12]; compound 10.0 µM): 73%
residual activity ([13]; compound 1.0 µM): 102%
residual activity ([13]; compound 10.0 µM): 103%
residual activity ([14]; compound 1.0 µM): 95%
residual activity ([14]; compound 10.0 µM): 90%
residual activity ([15]; compound 1.0 µM): 66%
residual activity ([15]; compound 10.0 µM): 19%
residual activity ([16]; compound 1.0 µM): 103%
residual activity ([16]; compound 10.0 µM): 101%
residual activity ([17]; compound 1.0 µM): 104%
residual activity ([17]; compound 10.0 µM): 89%
residual activity ([18]; compound 1.0 µM): 84%
residual activity ([18]; compound 10.0 µM): 87%
residual activity ([19]; compound 1.0 µM): 102%
residual activity ([19]; compound 10.0 µM): 95%
residual activity ([20]; compound 1.0 µM): 83%
residual activity ([20]; compound 10.0 µM): 71%
residual activity [21]: 103%
residual activity ([22]; compound 1.0 µM): 106%
residual activity ([22]; compound 10.0 µM): 106%
residual activity ([23]; compound 1.0 µM): 95%
residual activity ([23]; compound 10.0 µM): 83%
residual activity ([24]; compound 1.0 µM): 85%
residual activity ([24]; compound 10.0 µM): 86%
residual activity ([25]; compound 1.0 µM): 110%
residual activity ([25]; compound 10.0 µM): 88%
residual activity ([26]; compound 1.0 µM): 87%
residual activity ([26]; compound 10.0 µM): 71%
residual activity ([27]; compound 1.0 µM): 85%
residual activity ([27]; compound 10.0 µM): 86%
residual activity ([28]; compound 1.0 µM): 84%
residual activity ([28]; compound 10.0 µM): 96%
residual activity ([29]; compound 1.0 µM): 105%
residual activity ([29]; compound 10.0 µM): 101%
residual activity ([30]; compound 1.0 µM): 66%
residual activity ([30]; compound 10.0 µM): 68%
residual activity ([32]; compound 1.0 µM): 94%
residual activity ([32]; compound 10.0 µM): 90%
residual activity ([33]; compound 1.0 µM): 102%
residual activity ([33]; compound 10.0 µM): 95%
residual activity ([34]; compound 1.0 µM): 99%
residual activity ([34]; compound 10.0 µM): 91%
residual activity [35]: 104%
Structure (SMILES): Cc1nc(-c2ccc(OCC(C)C)c(C#N)c2)sc1C(=O)O
